Reference: patent US10376520B2, “Methods for the treatment of cardiovascular disorders” (Galapagos NV, priority 2015, dated 2019)

Test system: RA patients
Assay: [HDL] determination, Study 2 (RA patients, monotherapy)
Assay type: in vivo, human
Conditions: for [HDL] Mean percentage CFB - 12 weeks results / [HDL] Median percentage CFB - 12 weeks results: 50 mg q.d.
Text: Randomized, double-blind, placebo-controlled, multicenter, phase IIb dose finding study of Compound 1 (dosed as a [Compound 1:HCl:3H2O]) administered for 24 weeks as monotherapy to subjects with moderately to severely active rheumatoid arthritis who have an inadequate response to methotrexate alone
Double-blind, placebo-controlled, monotherapy study in subjects with moderately to severely active RA who have an inadequate response to methotrexate (MTX) (oral or parenteral).
280 subjects randomized to one of 3 doses of Compound 1 (dosed as a [Compound 1:HCl:3H2O]) or to placebo, given once daily (q.d.).
Twelve weeks of treatment with Compound 1 (dosed as a [Compound 1:HCl:3H2O]) at 50 mg, 100 mg, or 200 mg q.d.; or placebo. At Week 12, all subjects on placebo and the subjects on the 50 mg dose who have not achieved 20% improvement in swollen joint count (SJC66) and tender joint count (TJC68) will be assigned to 100 mg q.d. in a blinded fashion and will continue treatment until Week 24. Subjects in the other groups will maintain their randomized treatment until Week 24.
This assay relies on a homogeneous enzymatic colorimetric test. In the presence of magnesium ions, dextran sulfate selectively forms water-soluble complexes with LDL, VLDL and chylomicrons which are resistant to PEG-modified enzymes.
The cholesterol concentration of [HDL]-cholesterol is determined enzymatically by cholesterol esterase and cholesterol oxidase coupled with PEG to the amino groups (approx. 40%).
In the presence of peroxidase, the hydrogen peroxide generated reacts with 4-amino-antipyrine and Sodium N-(2-hydroxy-3-sulfopropyl)-3,5-dimethoxyaniline (HSDA) to form a purple-blue dye. The color intensity of this dye is directly proportional to the cholesterol concentration and is measured photometrically.
Human serum and plasma samples [HDL] determination was done on a Roche/Hitachi Cobas c 701/702 system which automatically calculate the analyte concentration of each sample. Samples containing precipitates are centrifuged before performing the assay.

[1] = 50 mg q.d. non responders switching to 100 mg q.d. at week 12 (N = 15), week 1
[2] = 50 mg q.d. non responders switching to 100 mg q.d. at week 12 (N = 15), week 2
[3] = 50 mg q.d. non responders switching to 100 mg q.d. at week 12 (N = 15), week 4
[4] = 50 mg q.d. non responders switching to 100 mg q.d. at week 12 (N = 15), week 8
[5] = 50 mg q.d. non responders switching to 100 mg q.d. at week 12 (N = 15), week 12
[6] = 50 mg q.d. non responders switching to 100 mg q.d. at week 12 (N = 15), week 16
[7] = 50 mg q.d. non responders switching to 100 mg q.d. at week 12 (N = 15), week 20
[8] = 50 mg q.d. non responders switching to 100 mg q.d. at week 12 (N = 15), week 24
[9] = 50 mg q.d. non responders switching to 100 mg q.d. at week 12, week 1
[10] = 50 mg q.d. non responders switching to 100 mg q.d. at week 12, week 2
[11] = 50 mg q.d. non responders switching to 100 mg q.d. at week 12, week 4
[12] = 50 mg q.d. responders (N = 57), week 1
[13] = 50 mg q.d. responders (N = 57), week 2
[14] = 50 mg q.d. responders (N = 57), week 4
[15] = 50 mg q.d. responders (N = 57), week 8
[16] = 50 mg q.d. responders (N = 57), week 12
[17] = 50 mg q.d. responders (N = 57), week 16
[18] = 50 mg q.d. responders (N = 57), week 20
[19] = 50 mg q.d. responders (N = 57), week 24

For `O=C(Nc1nc2cccc(-c3ccc(CN4CCS(=O)(=O)CC4)cc3)n2n1)C1CC1` [Compound 1, cyclopropanecarboxylic acid {5-[4-(1,1-dioxo-thiomorpholin-4-ylmethyl)-phenyl]-[1,2,4]triazolo[1,5-a]pyridin-2yl}-amide], the “[HDL] Mean CFB” value (50 mg q.d. (N = 72), week 1) was 0.033 mmol/L, the “[HDL] Median CFB” value (50 mg q.d. (N = 72), week 1) was 0.050 mmol/L and the “[HDL] Mean CFB” value (50 mg q.d. (N = 72), week 2) was 0.055 mmol/L. The “[HDL] Median CFB” value (50 mg q.d. (N = 72), week 2) was 0.000 mmol/L, the “[HDL] Mean CFB” value (50 mg q.d. (N = 72), week 4) was 0.102 mmol/L and the “[HDL] Median CFB” value (50 mg q.d. (N = 72), week 4) was 0.100 mmol/L. For the same molecule, the “[HDL] Mean CFB” value (50 mg q.d. (N = 72), week 8) was 0.120 mmol/L, the “[HDL] Median CFB” value (50 mg q.d. (N = 72), week 8) was 0.110 mmol/L and the “[HDL] Mean CFB” value (50 mg q.d. (N = 72), week 12) was 0.078 mmol/L. For the same molecule, the “[HDL] Median CFB” value (50 mg q.d. (N = 72), week 12) was 0.065 mmol/L, the “[HDL] Mean CFB - 24 weeks results” value [1] was 0.08 mmol/L and the “[HDL] Median CFB - 24 weeks results” value [1] was 0.05 mmol/L. The “[HDL] Mean CFB - 24 weeks results” value [2] was 0.05 mmol/L, the “[HDL] Median CFB - 24 weeks results” value [2] was 0.04 mmol/L and the “[HDL] Mean CFB - 24 weeks results” value [3] was 0.14 mmol/L. The “[HDL] Median CFB - 24 weeks results” value [3] was 0.11 mmol/L, the “[HDL] Mean CFB - 24 weeks results” value [4] was 0.09 mmol/L and the “[HDL] Median CFB - 24 weeks results” value [4] was 0.10 mmol/L. For the same molecule, the “[HDL] Mean CFB - 24 weeks results” value [5] was 0.15 mmol/L, the “[HDL] Median CFB - 24 weeks results” value [5] was 0.14 mmol/L and the “[HDL] Mean CFB - 24 weeks results” value [6] was 0.20 mmol/L. The “[HDL] Median CFB - 24 weeks results” value [6] was 0.21 mmol/L, the “[HDL] Mean CFB - 24 weeks results” value [7] was 0.21 mmol/L and the “[HDL] Median CFB - 24 weeks results” value [7] was 0.25 mmol/L. For the same molecule, the “[HDL] Mean CFB - 24 weeks results” value [8] was 0.30 mmol/L, the “[HDL] Median CFB - 24 weeks results” value [8] was 0.31 mmol/L and the “[HDL] Mean percentage CFB - 24 weeks results” value [9] was 5.25%. For the same molecule, the “[HDL] Median percentage CFB - 24 weeks results” value [9] was 3.68%, the “[HDL] Mean percentage CFB - 24 weeks results” value [10] was 4.69% and the “[HDL] Median percentage CFB - 24 weeks results” value [10] was 4.17%. The “[HDL] Mean percentage CFB - 24 weeks results” value [11] was 10.56%, the “[HDL] Median percentage CFB - 24 weeks results” value [11] was 10.14% and the “[HDL] Mean percentage CFB - 24 weeks results” value (50 mg q.d. non responders switching to 100 mg q.d. at week 12, week 8) was 5.96%. For the same molecule, the “[HDL] Median percentage CFB - 24 weeks results” value (50 mg q.d. non responders switching to 100 mg q.d. at week 12, week 12) was 7.95%, the “[HDL] Median percentage CFB - 24 weeks results” value (50 mg q.d. non responders switching to 100 mg q.d. at week 12, week 16) was 14.34% and the “[HDL] Median percentage CFB - 24 weeks results” value (50 mg q.d. non responders switching to 100 mg q.d. at week 12, week 20) was 16.22%. For the same molecule, the “[HDL] Median percentage CFB - 24 weeks results” value (50 mg q.d. non responders switching to 100 mg q.d. at week 12, week 24) was 19.84%, the “[HDL] Mean CFB - 24 weeks results” value [12] was 0.02 mmol/L and the “[HDL] Median CFB - 24 weeks results” value [12] was 0.04 mmol/L. The “[HDL] Mean CFB - 24 weeks results” value [13] was 0.05 mmol/L, the “[HDL] Median CFB - 24 weeks results” value [13] was 0.00 mmol/L and the “[HDL] Mean CFB - 24 weeks results” value [14] was 0.09 mmol/L. The “[HDL] Median CFB - 24 weeks results” value [14] was 0.10 mmol/L, the “[HDL] Mean CFB - 24 weeks results” value [15] was 0.13 mmol/L and the “[HDL] Median CFB - 24 weeks results” value [15] was 0.14 mmol/L. For the same molecule, the “[HDL] Mean CFB - 24 weeks results” value [16] was 0.06 mmol/L, the “[HDL] Median CFB - 24 weeks results” value [16] was 0.05 mmol/L and the “[HDL] Mean CFB - 24 weeks results” value [17] was 0.08 mmol/L. For the same molecule, the “[HDL] Median CFB - 24 weeks results” value [17] was 0.03 mmol/L, the “[HDL] Mean CFB - 24 weeks results” value [18] was 0.11 mmol/L and the “[HDL] Median CFB - 24 weeks results” value [18] was 0.08 mmol/L. The “[HDL] Mean CFB - 24 weeks results” value [19] was 0.17 mmol/L, the “[HDL] Median CFB - 24 weeks results” value [19] was 0.10 mmol/L and the “[HDL] Mean percentage CFB - 24 weeks results” value (50 mg q.d. responders, week 1) was 1.48%. For the same molecule, the “[HDL] Median percentage CFB - 24 weeks results” value (50 mg q.d. responders, week 1) was 2.78%, the “[HDL] Mean percentage CFB - 24 weeks results” value (50 mg q.d. responders, week 2) was 4.14% and the “[HDL] Mean percentage CFB - 24 weeks results” value (50 mg q.d. responders, week 4) was 7.26%. For the same molecule, the “[HDL] Median percentage CFB - 24 weeks results” value (50 mg q.d. responders, week 4) was 8.30%, the “[HDL] Mean percentage CFB - 24 weeks results” value (50 mg q.d. responders, week 8) was 9.33% and the “[HDL] Median percentage CFB - 24 weeks results” value (50 mg q.d. responders, week 8) was 8.81%. For the same molecule, the “[HDL] Mean percentage CFB - 24 weeks results” value (50 mg q.d. responders, week 12) was 4.45%, the “[HDL] Median percentage CFB - 24 weeks results” value (50 mg q.d. responders, week 12) was 4.00% and the “[HDL] Mean percentage CFB - 24 weeks results” value (50 mg q.d. responders, week 16) was 6.26%. For the same molecule, the “[HDL] Median percentage CFB - 24 weeks results” value (50 mg q.d. responders, week 16) was 2.82%, the “[HDL] Mean percentage CFB - 24 weeks results” value (50 mg q.d. responders, week 20) was 7.61% and the “[HDL] Median percentage CFB - 24 weeks results” value (50 mg q.d. responders, week 20) was 5.63%. The “[HDL] Mean percentage CFB - 24 weeks results” value (50 mg q.d. responders, week 24) was 11.90%, the “[HDL] Mean percentage CFB - 12 weeks results” value (week 1) was 2.27% and the “[HDL] Median percentage CFB - 12 weeks results” value (week 1) was 3.23%. The “[HDL] Mean percentage CFB - 12 weeks results” value (week 2) was 4.26%, the “[HDL] Median percentage CFB - 12 weeks results” value (week 2) was 0.00% and the “[HDL] Mean percentage CFB - 12 weeks results” value (week 4) was 7.96%. For the same molecule, the “[HDL] Median percentage CFB - 12 weeks results” value (week 4) was 8.70%, the “[HDL] Mean percentage CFB - 12 weeks results” value (week 8) was 8.60% and the “[HDL] Median percentage CFB - 12 weeks results” value (week 8) was 7.00%. The “[HDL] Mean percentage CFB - 12 weeks results” value (week 12) was 5.77%, the “[HDL] Median percentage CFB - 12 weeks results” value (week 12) was 4.67% and the “[HDL] Mean CFB” value (100 mg q.d. (N = 70), week 1) was 0.085 mmol/L. For the same molecule, the “[HDL] Mean CFB - 24 weeks results” value (100 mg q.d. (N = 70), week 1) was 0.09 mmol/L, the “[HDL] Median CFB” value (100 mg q.d. (N = 70), week 1) was 0.050 mmol/L and the “[HDL] Median CFB - 24 weeks results” value (100 mg q.d. (N = 70), week 1) was 0.05 mmol/L. For the same molecule, the “[HDL] Mean CFB” value (100 mg q.d. (N = 70), week 2) was 0.131 mmol/L, the “[HDL] Mean CFB - 24 weeks results” value (100 mg q.d. (N = 70), week 2) was 0.13 mmol/L and the “[HDL] Median CFB” value (100 mg q.d. (N = 70), week 2) was 0.100 mmol/L. The “[HDL] Median CFB - 24 weeks results” value (100 mg q.d. (N = 70), week 2) was 0.10 mmol/L, the “[HDL] Mean CFB” value (100 mg q.d. (N = 70), week 4) was 0.194 mmol/L and the “[HDL] Mean CFB - 24 weeks results” value (100 mg q.d. (N = 70), week 4) was 0.19 mmol/L. For the same molecule, the “[HDL] Median CFB” value (100 mg q.d. (N = 70), week 4) was 0.175 mmol/L, the “[HDL] Median CFB - 24 weeks results” value (100 mg q.d. (N = 70), week 4) was 0.18 mmol/L and the “[HDL] Mean CFB” value (100 mg q.d. (N = 70), week 8) was 0.171 mmol/L.
